This series deals with Spodoptera littoralis. Kind of series: Insecticidal bioassay screening (castor leaf dip) against 2nd and 4th instar larvae. It is filed as in vivo. Particulars: for Toxic ratio: 72 h, fenoxycarb's LC50/compound's LC50 ×100. As for the experimental part:
Five concentrations (200, 100, 50, 25, 12.5 ppm) were designed for this synthetic compound and the reference fenoxycarb compound as the dynamic ingredients based on ppm via diluting the commercial formulation.
In this experiment, castor leaves were immersed in each of the previously prepared concentrations of the components for 10 seconds and then left to dry for 60 minutes.
Larvae of the second and fourth instars of each checked strain were prepared with treated leaves in gauze-covered glass containers for 72 hrs. An untreated control was made in which leaves were dipped in triton x-100 and distilled water only. Then, the preserved leaves were removed & fresh, untreated leaves were provided for 72 hours. Three replicates (10 larvae each) were checked for each concentration. Daily inspection was carried out for all treatments and mortality percentages were recorded 3 days (72 hours) after treatment. The average mortality percentage was corrected employing Abbott's formula. The corrected mortality rate for each of the previously synthesized compounds was statistically calculated according to Finney (1970). Through this rate, the corresponding concentration test lines (LDP lines) were assessed. Fifty and ninety percent mortality was determined, and the regression values for the checked products were previously evaluated.

Converted amounts (≈) assume the structure as drawn.

As to `CCOC(=O)NCCOc1ccc(Oc2ccccc2)cc1` [Fenoxycarb], the LC50 (commonly the concentration that kills 50% of the test population) was 2.73 ppm (2nd instar larvae of S. littoralis, after 72 h of treatment); 43.231 ppm (4th instar larvae of S. littoralis, after 72 h of treatment); 2.73 µg/mL (≈ 9.06 µM) (Spodoptera littoralis, foliar). Also, the Toxic ratio is 100 (2nd instar larvae) and 1 (4th instar larvae).

The values are drawn from patent US12116333B1, “3,3'-(hydrazine-1,2-diyl)bis(1-(naphthalen-2-yloxy)propan-2-ol) as an ecofriendly insecticidal agent against spodoptera littoralis (boisd.)” (KING FAISAL UNIVERSITY, priority 2023, dated 2024).
